Measured values: patent US20230017045A1, “PYRIDINE AND PYRIMIDINE CARBOXYLATE HERBICIDES AND METHODS OF USE THEREOF” (Dow AgroSciences LLC, priority 2017, published 2023)
Where two headings read alike, the source gives them in different places.

Tested on: test plant species
Test: Post-emergent herbicidal activity test (greenhouse, foliar spray, visual growth reduction)
Assay type: in vivo
Details: post-emergence, 336 h, 140 g ai/ha
How it was run: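 Visual scoring 14 d after treatment (0 = no injury, 100 = complete control) against nontreated and solvent-blank plants gave percent growth reduction. Foliar application used a track sprayer delivering 187 L/ha to seedlings at first or second true leaf stage, grown at 23–29 °C day, ~15 h photoperiod.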

[1] = ECHCG: barnyardgrass (Echinochloa crus-galli), 14 days after application, read-out: Visual Growth Reduction (%) 14 Days After Application, ECHCG
[2] = IPOHE: ivy-leaf morning glory (Ipomoea hederacea), 14 days after application, read-out: Visual Growth Reduction (%) 14 Days After Application, IPOHE
[3] = KCHSC: kochia (Bassia scoparia), 14 days after application, read-out: Visual Growth Reduction (%) 14 Days After Application, KCHSC
[4] = ORYSA: rice (Oryza sativa), 14 days after application, read-out: Visual Growth Reduction (%) 14 Days After Application, ORYSA
[5] = SETFA: giant foxtail (Setaria faberi), 14 days after application, read-out: Visual Growth Reduction (%) 14 Days After Application, SETFA
[6] = SORVU: grain sorghum (Sorghum vulgare), 14 days after application, read-out: Visual Growth Reduction (%) 14 Days After Application, SORVU
[7] = STEME: common chickweed (Stellaria media), 14 days after application, read-out: Visual Growth Reduction (%) 14 Days After Application, STEME
[8] = TRZAS: wheat, spring (Triticum aestivum), 14 days after application, read-out: Visual Growth Reduction (%) 14 Days After Application, TRZAS
[9] = blackgrass (Alopecurus myosuroides), 14 Days After Application, read-out: Visual Growth Reduction (%) ALOMY
[10] = canada thistle (Cirsium arvense), 14 Days After Application, read-out: Visual Growth Reduction (%) CIRAR
[11] = crabgrass (Digitaria sanguinalis), 14 Days After Application, read-out: Visual Growth Reduction (%) DIGSA
[12] = lambsquarters (Chenopodium album), 14 Days After Application, read-out: Visual Growth Reduction (%) CHEAL
[13] = redroot pigweed (Amaranthus retroflexus), 14 Days After Application, read-out: Visual Growth Reduction (%) AMARE
[14] = wild oat (Avena fatua), 14 Days After Application, read-out: Visual Growth Reduction (%) AVEFA
[15] = yellow nutsedge (Cyperus esculentus), 14 Days After Application, read-out: Visual Growth Reduction (%) CYPES

Compound | pest or weed control at 140 g/ha [1] [%] | pest or weed control at 140 g/ha [2] [%] | pest or weed control at 140 g/ha [3] [%] | pest or weed control at 140 g/ha [4] [%] | pest or weed control at 140 g/ha [5] [%] | pest or weed control at 140 g/ha [6] [%] | pest or weed control at 140 g/ha [7] [%] | pest or weed control at 140 g/ha [8] [%] | pest or weed control at 140 g/ha [9] [%] | pest or weed control at 140 g/ha [10] [%] | pest or weed control at 140 g/ha [11] [%] | pest or weed control at 140 g/ha [12] [%] | pest or weed control at 140 g/ha [13] [%] | pest or weed control at 140 g/ha [14] [%] | pest or weed control at 140 g/ha [15] [%] | also measured
COC(=O)c1nc(-c2ccc([S+](C)[O-])cc2)c(F)cc1Cl (stereo not drawn) [F263, Methyl 3-chloro-5-fluoro-6-(4-(methylsulfinyl)phenyl)picolinate] | 0 to 29 | 0 to 29 | 0 to 29 | 0 to 29 | 0 to 29 | 0 to 29 | 0 to 29 | 0 to 29 | 0 to 29 | 0 to 29 | 0 to 29 | 0 to 29 | 0 to 29 | 0 to 29 | 0 to 29 | –
COC(=O)c1nc(-c2ccc(C(F)(F)F)c(OC)c2)ccc1Cl [F296, Methyl 3-chloro-6-(3-methoxy-4-(trifluoromethyl)phenyl)picolinate] | 0 to 29 | 45 to 59 | 0 to 29 | 0 to 29 | 0 to 29 | 0 to 29 | 0 to 29 | 0 to 29 | 0 to 29 | 60 to 74 | 0 to 29 | 0 to 29 | 0 to 29 | 0 to 29 | 0 to 29 | –
COC(=O)c1nc(-c2ccc(C#N)cc2Cl)c(F)cc1Cl [F186, Methyl 3-chloro-6-(2-chloro-4-cyanophenyl)-5-fluoropicolinate] | 60 to 74 | 95 to 100 | 75 to 84 | 0 to 29 | 85 to 94 | 85 to 94 | 0 to 29 | 30 to 44 | – | – | – | – | – | – | – | pest or weed control at 140 g/ha (ALOMY: blackgrass (Alopecurus myosuroides), 14 days after application, read-out: Visual Growth Reduction (%) 14 Days After Application, ALOMY): 0 to 29%; pest or weed control at 140 g/ha (AMARE: redroot pigweed (Amaranthus retroflexus), 14 days after application, read-out: Visual Growth Reduction (%) 14 Days After Application, AMARE): 75 to 84%; pest or weed control at 140 g/ha (AVEFA: wild oat (Avena fatua), 14 days after application, read-out: Visual Growth Reduction (%) 14 Days After Application, AVEFA): 0 to 29%; pest or weed control at 140 g/ha (CHEAL: lambsquarters (Chenopodium album), 14 days after application, read-out: Visual Growth Reduction (%) 14 Days After Application, CHEAL): 85 to 94%; pest or weed control at 140 g/ha (CIRAR: canada thistle (Cirsium arvense), 14 days after application, read-out: Visual Growth Reduction (%) 14 Days After Application, CIRAR): 75 to 84%; pest or weed control at 140 g/ha (CYPES: yellow nutsedge (Cyperus esculentus), 14 days after application, read-out: Visual Growth Reduction (%) 14 Days After Application, CYPES): 45 to 59%; pest or weed control at 140 g/ha (DIGSA: crabgrass (Digitaria sanguinalis), 14 days after application, read-out: Visual Growth Reduction (%) 14 Days After Application, DIGSA): 75 to 84%
COC(=O)c1nc(-c2cc3nonc3cc2F)c(Cl)cc1Cl [F327, Methyl 3,5-dichloro-6-(6-fluorobenzo[c][1,2,5]oxadiazol-5-yl)picolinate] | 0 to 29 | 75 to 84 | 0 to 29 | 0 to 29 | 30 to 44 | 0 to 29 | 0 to 29 | 0 to 29 | 0 to 29 | 0 to 29 | 0 to 29 | 30 to 44 | 30 to 44 | 0 to 29 | 0 to 29 | –
COC(=O)c1nc(-c2cc(OC)c3c(c2)OCO3)c(F)cc1Cl [F231, Methyl 3-chloro-5-fluoro-6-(7-methoxybenzo[d] [1,3]dioxol-5-yl)picolinate] | 0 to 29 | 0 to 29 | 0 to 29 | 0 to 29 | 0 to 29 | 0 to 29 | 0 to 29 | 0 to 29 | 0 to 29 | 0 to 29 | 0 to 29 | 0 to 29 | 0 to 29 | 0 to 29 | 0 to 29 | –
